Assay results published in patent publication US8476455B2, “1-N-phenyl-amino-1h-imidazole derivatives and pharmaceutical compositions containing them” (Laboratoire Theramex, priority 2003, dated 2013).

Tests used:
[1] = system: steroid sulfatase; test: Anti uterotrophic/anti steroid sulfatase activity in vivo; design: species or system rat; conditions: ovariectomized Wistar female rats, E1S 50 μg/kg/day s.c., oral 1 mg/kg/day for 4 days; % of inhibition of the E1S induced stimulation
Description: Wistar female rats were ovariectomized and left to rest for 4 weeks. Prior to treatment, the absence of cyclicity was checked by vaginal smears. Animals were supplemented with estrone sulfate (EIS) at 50 μg/kg/day s.c., alone or combined with oral administration of potential sulfatase inhibitors, at 1 mg/kg/day for 4 days. The uteri were removed, freed of adjacent tissue and wet weighed (Table 3).
Estrone sulfatase activity is measured according to the method described by Purohit et al., with slight modifications. Briefly, uteri were thawed, weighed and homogenized. Aliquots of the supernatant were treated with dextran-coated charcoal and assayed for sulfatase. E1S activity is assessed after 30 min of incubation with 5 nM of ^3H-E1S and 20 μM of unlabelled E1S as substrate. Estrone sulfatase activity is expressed as pmol/h/mg protein and reported as percentage of inhibition vs E1S; for uterus weights, results are expressed as % of inhibition of the E1S induced stimulation

[2] = target: T1, human steroid sulfatase (Homo sapiens, UniProt P08842); test: Dual aromatase and steroid sulfatase activities in JEG-3 cells: sulfatase readout; assay type: cell-based; conditions: footnote c: dual aromatase and sulfatase activity, nd: not detected, read-out: Sulfatase activity IC50 (nM) ± S.E.M.
T1 construct: The JEG-3 cell line is intrinsically very rich in human estrone sulfatase; endogenous in cells; host or cells: JEG-3 (human placental choriocarcinoma)
T1 sequence (P08842 22-583): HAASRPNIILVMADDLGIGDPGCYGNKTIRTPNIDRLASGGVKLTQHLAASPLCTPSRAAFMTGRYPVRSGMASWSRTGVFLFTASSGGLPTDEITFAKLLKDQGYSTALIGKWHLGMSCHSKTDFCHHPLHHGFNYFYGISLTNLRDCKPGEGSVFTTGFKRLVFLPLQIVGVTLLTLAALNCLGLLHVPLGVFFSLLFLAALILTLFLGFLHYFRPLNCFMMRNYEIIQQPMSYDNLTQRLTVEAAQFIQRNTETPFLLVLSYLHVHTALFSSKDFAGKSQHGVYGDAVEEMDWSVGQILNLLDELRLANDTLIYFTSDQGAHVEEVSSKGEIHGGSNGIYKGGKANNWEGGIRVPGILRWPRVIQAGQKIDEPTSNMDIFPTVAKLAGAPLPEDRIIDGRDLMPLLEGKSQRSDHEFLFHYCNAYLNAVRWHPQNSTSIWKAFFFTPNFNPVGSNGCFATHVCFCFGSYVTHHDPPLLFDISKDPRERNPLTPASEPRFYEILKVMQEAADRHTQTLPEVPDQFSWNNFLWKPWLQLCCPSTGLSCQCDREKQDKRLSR
Description: (§1) The JEG-3 cell line is intrinsically very rich in human estrone sulfatase and therefore is a useful biological system to evaluate new steroid sulfatase inhibitors in vitro. Assays were carried out with cells in logarithmic growth phase on 96-well microplates. 24 h before studies, cells were seeded in decomplemented fetal calf serum (dFCS) supplemented medium. The medium was removed 24 h later and cells were rinsed with PBS to eliminate any trace of dFCS. Then, ^3H-E1S was added in dFCS free medium, followed by test compounds at concentrations ranging from 10^−12 M to 10^−5 M. After 4 h of treatment, the medium was transferred into 96-deep-well microplates and centrifuged at 200×g for 10 min to pellet cells before toluene extraction. A fraction of the medium was used for toluene extraction in order to separate the conjugated substrate from non-conjugated products. The radioactivity in the toluene phase was measured by liquid scintillation counting. In parallel, after cell solubilization in a ethylenediamine tetraacetate solution, DNA content was measured by a standard fluorimetric method using the Hoechst 33258 fluorochrome. Finally, estrone sulfatase activity was expressed in pmoles of ^3H-E1+^3H-E2 formed/4 hours/mg DNA and estrone sulfatase inhibition as a percentage of control activity without inhibitor.
(§2) In order to evaluate the inhibitory potency of DASI compounds in parallel on both human aromatase and steroid sulfatase activities, a new in vitro model was set up using JEG-3 cells. The experimental conditions of the steroid sulfatase model previously described was adopted with slight modifications: the presence of the two substrates ^3-HE1S and 1β-^3H-androstenedione into the medium and an incubation period of 2 hours. Results were expressed in pmoles of product formed (^3H-E1+^3H-E2 or ^3H2O)/2 hours/mg DNA (Table 1).

[3] = target: T2, human estrone sulfatase (Homo sapiens, UniProt P08842); test: Steroid (estrone) sulfatase activity alone in JEG-3 cells; assay type: cell-based; conditions: footnote b: sulfatase activity alone, nd: not detected, read-out: Sulfatase activity IC50 (nM) ± S.E.M.
T2 construct: The JEG-3 cell line is intrinsically very rich in human estrone sulfatase; endogenous in cells; host or cells: JEG-3 (human placental choriocarcinoma)
T2 sequence (P08842 22-583): T1 sequence (P08842 22-583)
Description: as §1

[4] = system: Ishikawa cells; test: Alkaline phosphatase activity in Ishikawa cells (estrogenic potency); assay type: cell-based
Description: Ishikawa cells were plated into 96-well microplates 48 hours before studies. The next day, the medium was replaced by phenol red free medium supplemented with 5% charcoal-stripped dFCS. 24 hours later, the medium was renewed and compounds were added to the plated cells and incubated for an additional four-day period. […] At the end of the incubation period, alkaline phosphatase activity (APase) was assayed by a method involving the hydrolysis of p-nitrophenyl phosphate to p-nitrophenol and spectrophotometric determination of the product at 405 nm.
In brief, the microplates were first rinsed twice with cold phosphate buffered solution and then placed at −80° C. for at least 15 minutes. After thawing at room temperature, 50 μl ice-cold solution containing 5 mM p-nitrophenyl phosphate was added to each well. After a 15 to 60 minute incubation period at room temperature, the intensity of the yellow color generated by the production of p-nitrophenol was measured into each well at 405 nm.
For each tested concentration, APase activity, reflected by absorbance, was first expressed as fold increase over control (FI) and then as percentage of E2 activity (10^-8 M) chosen equal to 100%.

[5] = target: T3, human aromatase (Homo sapiens, UniProt P11511); test: Aromatase activity alone, tritiated water method in JEG-3 cells; assay type: cell-based; conditions: footnote a: aromatase activity alone, nd: not detected, read-out: Aromatase activity IC50 (nM) ± S.E.M.
T3 construct: The JEG-3 cell line, derived from a human placental choriocarcinoma, constitutively overexpresses human aromatase; endogenous in cells; host or cells: JEG-3 (human placental choriocarcinoma)
T3 sequence (P11511 1-503): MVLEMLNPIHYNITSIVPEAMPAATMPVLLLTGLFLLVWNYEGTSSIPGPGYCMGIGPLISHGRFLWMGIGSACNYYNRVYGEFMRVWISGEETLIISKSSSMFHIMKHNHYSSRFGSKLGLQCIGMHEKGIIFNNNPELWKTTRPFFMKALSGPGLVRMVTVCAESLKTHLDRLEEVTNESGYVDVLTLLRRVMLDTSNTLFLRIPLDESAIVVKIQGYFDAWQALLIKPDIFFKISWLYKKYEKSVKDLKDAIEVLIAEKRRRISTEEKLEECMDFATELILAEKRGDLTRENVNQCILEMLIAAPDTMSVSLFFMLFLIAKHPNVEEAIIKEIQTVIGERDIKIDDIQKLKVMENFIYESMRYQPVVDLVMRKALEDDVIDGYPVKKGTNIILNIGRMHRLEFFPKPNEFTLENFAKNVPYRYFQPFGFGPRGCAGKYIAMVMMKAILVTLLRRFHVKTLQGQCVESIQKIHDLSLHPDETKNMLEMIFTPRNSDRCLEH
Description: The JEG-3 cell line, derived from a human placental choriocarcinoma, constitutively overexpresses human aromatase and represents a relevant model for assaying putative aromatase inhibitors in vitro. Aromatase activity was determined by the tritiated water method. In brief, cells were first seeded into 96-well microplates in decomplemented fetal calf serum (dFCS) supplemented medium. 24 hours later, cells were rinsed and fresh medium containing 1β-^3H-androstenedione as aromatase substrate was added together with test compounds at concentrations ranging from 10^−12 M to 10^−5 M. After 2 hours of incubation, a fraction of the medium was transferred to homologous new 96-well microplates and a dextran-coated charcoal solution was added to each well. Following standing on ice for 10 minutes, microplates were centrifuged (1500 g; 4° C.). All steroids, including the radioactive substrate and the newly biosynthesized estrogens, were adsorbed on charcoal; only ^3H-water specifically formed during aromatisation of 1β-^3H-androstenedione, remained in the supernatant. The radioactivity in the supernatant was measured by liquid scintillation counting. In parallel, cell solubilization was performed in ethylenediamine tetraacetate solution. […] Finally, aromatase activity was expressed in fmoles of ^3H-water formed/2 hours/μg DNA and aromatase inhibition as a percentage of control activity without inhibitor.

[6] = target: T3, human aromatase; test: Dual aromatase and steroid sulfatase activities in JEG-3 cells: aromatase readout; assay type: cell-based; conditions: footnote c: dual aromatase and sulfatase activity, nd: not detected, read-out: Aromatase activity IC50 (nM) ± S.E.M.
Description: as §1, with “Assays” for “The JEG-3 cell line is intrinsically very rich in human estrone sulfatase and therefore is a useful biological system to evaluate new steroid sulfatase inhibitors in vitro. Assays”, “In parallel, after cell solubilization in a ethylenediamine tetraacetate solution, DNA content was measured by a standard fluorimetric method using the Hoechst 33258 fluorochrome.” left out
as §2

[7] = target: human carbonic anhydrase II (Homo sapiens, UniProt P00918); test: Human carbonic anhydrase II activity (p-nitrophenyl acetate, colorimetric); assay type: biochemical; conditions: read-out: Human carbonic anhydrase II activity IC50 (nm) ± S.E.M.
Description: Briefly, in this assay, human carbonic anhydrase II catalyses the conversion of p-nitrophenyl acetate into pnitrophenol. The potential inhibitory effect of test compounds was evaluated by colorimetric determination of prnitrophenol produced during the enzymatic reaction. The optical density levels obtained without inhibitor will be referred to as “total activity”. The levels obtained without Inhibitor and without the enzyme will be referred to as “blank” in order to assess any interference with the substrate during the assay (Table 2).

[8] = system: aromatase; conditions: 3 μg/kg, 24 hours after one single oral administration in female rats; cited from earlier work
[9] = system: aromatase; test: Inhibition of estradiol peak, in vivo aromatase inhibition model; design: species or system rat; conditions: female rats, 24 hours after one oral administration
Description: One hundred IOPS Wistar female rats, weighing 180 to 200 g, were accommodated by four in stainless steel mesh cages. […] Vaginal smears were performed for each animal, each morning, in order to establish the different phases of cycle. […] Starting at 4.00 pm, animals received an oral administration of formulations. 24 hours later, samples of serum were collected and estradiol level were determined as previously described (Table 4).

Row | IC50 [3] [nM] | melting point [°C] | IC50 [5] [nM] | SMILES | also measured
1 | 2660 ± 257 | 180 | 0.82 ± 0.12 | N#Cc1ccc(N(Cc2ccc3c(c2)C=NS(=O)(=O)O3)n2ccnc2)cc1 [Ex 48, 4-[N-[(2,2-dioxido-1,2,3-benzoxathiazin-6-yl)methyl]-N-(1H-imidazol-1-yl)amino]benzonitrile] | 
2 |  | 174 |  | N#Cc1ccc(N(CCOc2ccc(OS(N)(=O)=O)cc2)n2ccnc2)cc1 [Ex 51, Sulfamic acid 4-{2-[N-(4-cyanophenyl)-N-(1H-imidazol-1yl)amino]ethoxy}phenyl ester] | IC50 [6]: 0.34 ± 0.13 nM; IC50 [2]: 597 ± 67.4 nM; IC50 [7]: 6.5 ± 0.9 nM

Continued, molecule first:

Row | SMILES | IC50 [3] [nM] | melting point [°C] | IC50 [5] [nM] | also measured
3 | NS(=O)(=O)Oc1ccc2c3c(c(=O)oc2c1)CCCCC3 [6,6,7 COUMATE, 6,6,7-COUMATE, reference compound] |  |  |  | % inhibition (uterus weight) [1]: 81%
4 | NS(=O)(=O)Oc1ccc2c(c1)S(=O)(=O)C=C2CC1CCCCCC1 [A*, sulfamic acid, 3-cycloheptylmethylbenzothiophen-6-yl-1,1-dioxide-ester, reference compound] | 2.5 ± 0.5 |  |  | IC50 [2]: 3.6 ± 0.8 nM
5 | N#Cc1ccc(N(Cc2ccc(OS(N)(=O)=O)cc2)n2ccnc2)cc1 [Ex 43, Sulfamic acid-4-{[N-(4-cyanophenyl)-N-(1H-imidazol-1yl)amino]methyl}phenyl ester] | ~10 | 172 | 0.57 ± 0.16 | estrogenicity in vitro (in words) [4]: not estrogenic
6 | COc1cc(CN(c2ccc(C#N)cc2)n2ccnc2)ccc1OS(N)(=O)=O [Ex 46, Sulfamic acid 2-methoxy-4-{[N-(4-cyanophenyl)-N-(1H-imidazol-1yl)amino]methyl}phenyl ester] | 13.8 ± 2.5 | 211 | 0.79 ± 0.26 | estrogenicity in vitro (in words) [4]: not estrogenic
7 | CC(C)(C#N)c1cc(Cn2cncn2)cc(C(C)(C)C#N)c1 [anastrozole, reference compound] |  |  |  | estradiol levels (in words) [8]: significantly inhibits; % inhibition (estradiol peak) [9]: 56%
